melting point [°C] | SMILES
275 to 277 | Cc1cc(-c2nc3cc(-c4ccncc4)cc(N)n3n2)oc1C
133 to 135 | CC(C)Oc1ccccc1-c1cc(=O)c2cc(C(=O)O)ccc2o1
> 217 | O=C(O)CN1C(=O)C(=CC=Cc2ccccc2)SC1=S
154 to 156 | O=S(=O)(Nc1ccc2c(OCc3csc(-c4ccc(Cl)nc4)n3)cccc2c1)C(F)(F)F
250 | NS(=O)(=O)c1ccc(-c2cccc(-c3nc(-c4ccc(C(F)(F)F)nc4)cc(C(F)(F)F)n3)c2)s1
200 to 202 | O=C(O)C1Cc2c([nH]c3ccccc23)CN1C(=S)SCC=Cc1ccccc1 (stereo not given)
132 to 135 | CC1=C(c2cccc(Cl)c2)n2ncc(C#N)c2N(C(=O)CCl)C1
108 | O=C(O)CCNC(=O)C(=Cc1ccc(C(F)(F)F)cc1)CS
200 to 202 | N#Cc1cccc(Oc2ncccc2C(=O)NCc2ccc(-c3cccc(C(=O)O)c3)cc2F)c1
130 to 131 | Nc1cc(C=O)nc(Cc2ccc(F)cc2)c1F
> 260 | O=C(O)c1cnc2cc(O)cc(O)c2c1
234 | CCOC(=O)c1nc2cc(Br)ccc2c(O)c1C(=O)OCC
144 to 146 | CC(C)(Oc1ccc(C(=O)c2ccc(Cl)cc2)cc1)C(=O)NCC(=O)O
145 to 146 | CCCn1nc(-c2ccc(O)c(Cl)c2)c2cccc(Cl)c21
155 | Cn1c(=O)n(Cc2ccccc2)c(=O)c2cc(C(=O)CCc3ccccc3)ccc21
284 to 286 | COC(=N)c1ccc(C(=O)O)cn1

melting point [°C] | SMILES
88 to 98 | O=C(O)c1ccc(OCCNC(=O)C2Cc3ccccc3N2S(=O)(=O)c2ccc(-c3ccc(F)cc3Cl)cc2)nc1 (stereo not given)
178 to 179 | CCCCCC(=O)NCc1ccc(C(=O)O)cc1
142 | COc1cc(O)c(C(=O)C=Cc2ccc(OC(C)=O)cc2)c(OC)c1
217 | CCOc1ccc(Nc2cc(C)nc3cn[nH]c23)cc1
206 to 207 | O=C(Nc1cccnc1)N1CCN(c2nccc(-c3ccc(F)cc3F)n2)CC1
168 to 170 | Nc1c(-c2ccc(C(F)(F)F)cc2F)nnn1Cc1ccc(O)cc1
254 to 255 | Nc1ncc(C2CCN(c3ccc(Cl)cc3)CC2)c(N)n1
254 to 256 | CC(C)(O)Cn1c(CO)nc2c(N)nc3cc(-c4ccc(Cl)c(Cl)c4)cnc3c21
106 to 112 | C[Si](C)(C)C#Cc1cnn(-c2ccnc3cc(Cl)ccc23)c1
262 to 263 | COc1ccc(C(=O)Nc2cccc(C(=O)O)c2)c2cc(C(=O)c3ccccc3)oc12
221 to 222 | CC(C)Cn1c(CON2C(=O)c3ccccc3C2=O)nc2c(N)nc3ccccc3c21
80 to 82 | CCC#CCOc1cc2c(cc1/C=C/c1ccc(C(=O)OCC)cc1)C(C)(C)CCC2(C)C
> 300 | Nc1nc(N)c2cc(C=Cc3ccc(C(=O)O)cc3)cnc2n1
206 to 207 | Cc1cccc(C)c1NC(=O)c1ccc(C(F)(F)F)cc1
289 to 291 | C(=C\c1cc(/C=C/c2ccc3cc[nH]c3c2)[nH]n1)/c1ccc2cc[nH]c2c1

Further lines, the molecule ahead of its results:

SMILES | melting point [°C]
Cc1cccc(-c2nc(-c3ccc(S(C)=O)cc3)sc2-c2ccnc(C)c2)c1 (stereo not given) | 128 to 130
O=c1[nH]c2c(Cl)cccc2c(=O)o1 | 225 to 230
Clc1ccc2c(CCN3CCN(c4cccc5c4OCCO5)CC3)c[nH]c2c1 | 215 to 216
C=CCN1C(C)(C)CC(O)CC1(C)C | 84 to 85
Cc1nc2c3cccc(Cl)c3ccn2c1CN(C)C | 157 to 160
CCOC(=O)c1cc2cc(OCCCOC)cc(N)c2[nH]1 | 139 to 140
O=C1CCC(=O)N1c1ccc(N2CCN(c3ccc(OCC(O)(Cn4cncn4)c4ccc(Cl)cc4Cl)cc3)CC2)cc1 (stereo not given) | 212 to 216
NC(=O)c1[nH]c2ccccc2c1-c1ccc(NS(=O)(=O)c2cccc(Cl)c2Cl)cc1 | > 260
Cc1nc2sc3cc(F)ccc3n2c1CO | 230 to 235
O=C(O)c1cc(Br)cnc1O | 245
CC(C)Cn1c(CNC(=O)OC(C)(C)C)c(-c2ccccc2F)c2cc(OCc3ccccc3)ccc2c1=O | 138 to 139
Cc1nccn1-c1nc(-c2ccc(Cl)cc2)c(CCCOc2ccccc2CCCO)o1 | 119 to 120
O=C(O)CCCCCCCCCCC(=O)c1ccccc1 | 83 to 86
CCCCC[C@H]1CC[C@H](c2ncc(O)cn2)CC1 | 190 to 191
Fc1ccc(Nc2nnc(Cc3ccncc3)c3ccccc23)cc1 | 129 to 131
O=c1cnc2cc(C(c3cccc(Cl)c3)n3ccnc3)ccc2[nH]1 (stereo not given) | 253
O=Cc1ccc2c(c1)C13CC2c2ccccc2C1CN(CC1CCCC1)C3 (stereo not given) | 170 to 175
O=[N+]([O-])c1nccn1CC(F)CO (stereo not given) | 84 to 89
COc1cccc(C2(O)c3c(C)c(NC(=O)CC(C)(C)C)c(C)c(C)c3OC2(C)C)c1 (stereo not given) | 154 to 155
CCN1CC=CC2=C1N1CN(OC)C=C1N=N2 | 167 to 168
COC(=O)c1cc2nccnc2c(Cl)c1N | 182 to 184
OCc1c(F)c(F)c(Br)c(F)c1F | 60 to 62
O=S(=O)(Cc1n[nH]c(-c2cccs2)n1)c1ccccc1 | 191 to 193

SMILES | melting point [°C]
Cc1nc(-c2ccc(-c3cscn3)cc2)c(-c2ccc(S(C)(=O)=O)c(F)c2)o1 | 196 to 197
COc1c(O)cc(O)c2c(=O)cc(-c3ccccc3)oc12 | 202 to 203
O=C(O)CCCCCCCc1ccc(CCNC(=O)c2ccc(Cl)cc2)cc1 | 145 to 148
COc1cc(-c2ccc(C#N)cc2)oc1-c1ccc(C#N)cc1 | 257 to 258
CC(C)(C)c1cc2c(c(C(C)(C)C)c1)OC(C(F)(F)F)C(C(=O)O)=C2 (stereo not given) | 172 to 175
CC(=O)Oc1ccc2c(c1)C[C@H]1CCCN(C(C)=O)[C@H]1C2 (relative stereo) | 108 to 113
N#Cc1ccccc1Cn1nnc2cc3c(cc2c1=O)OC1CCCN1C3=O (stereo not given) | 257 to 260
CC(CCc1cccc(F)c1)NCc1c(CO)ccc(O)c1CO (stereo not given) | 114 to 117
COC(=O)c1cc(OCCCOc2ccc(-c3ccccc3)cc2)cc(OCCCOc2ccc(-c3ccccc3)cc2)c1 | 142 to 145
COc1ccc(-c2[nH]nc3c2C(=O)c2c(NC(=O)CN4CCC(O)CC4)cccc2-3)cc1 | > 300
CC(C)(C)OC(=O)NC1CCCCCC=CC2CC2(C(=O)NS(=O)(=O)C2CC2)NC(=O)C2CC(OC(=O)c3ccc(F)cc3)CN2C1=O (stereo not given) | 154 to 156
O=C1Nc2cccnc2Nc2ccccc21 | 278 to 280
C=CCOc1ccc(C(=O)Oc2ccc(OCCCCOC(=O)C(=C)C)cc2)cc1 | 62 to 63
Cc1cn(C(C)C(=O)N(C)C)nc1-c1ccccc1Cl (stereo not given) | 98.5 to 100
COc1ccc2c(C(=O)O)cn(C(C)C)c2c1 | 162 to 163
CC1(C)CCC(C)(C)c2cc(-c3csc(C=O)c3)ccc21 | 84 to 85
CN1C(=O)[C@@H](N)[C@@H]1c1ccccc1 (relative stereo) | 51.5
Cn1nc(-c2nc(C#CCO)c(Cl)cc2F)c(Cl)c1OC(F)F | 92 to 94
OCCCN1c2ccccc2CCc2sccc21 | 73
C[C@]12CCC(=O)N[C@@H]1CCc1cc(Sc3cccc4ccccc34)ccc12 | 199 to 201
Nc1cc(OCc2ccccc2)c(OCc2ccccc2)cc1C=C(Br)Br | 95 to 98
O=C(c1c(Cl)cccc1Cl)N(C(=O)c1c(Cl)cccc1Cl)c1cc(-c2ccc(Cl)cc2)on1 | 219 to 223
CN1CCN(CCCn2cc(Br)c3c4c(c(-c5ccccc5Cl)cc32)C(=O)NC4=O)CC1 | 150 to 152

SMILES | melting point [°C]
CN1Cc2cncn2-c2cccc(Br)c2C1=O | 196 to 197
COc1cc2cc3c(Nc4ccc(Sc5nccn5C)c(Cl)c4)c(C#N)cnc3cc2cc1OCCn1ccnn1 | 201 to 207
C[C@@H]1OC(=O)[C@H]2[C@H]3O[C@H]([C@H]4CCCC[C@H]43)[C@@H]21 | 148 to 149
CCNC(=O)ON=C(C)C1=CCCN(C)C1 | 74 to 78
OC1C(COC2CC2)OC(n2cnc3c(NC4CCCC4)nc(Cl)nc32)C1O (stereo not given) | 104 to 106
O=C(Cc1cccc(O)c1)NNC(=O)c1c(O)cc(O)cc1Cl | 217
C=C1SC(=S)N(c2ccc3cc(-c4ccc(OC)c(C(C)(C)C)c4)ccc3c2)C1=O | 281 to 284
Cc1cc(C)c2nccn2n1 | 70 to 74
COC(=O)CN(C(=O)CCCOc1ccc2c(c1)CN1CC(=O)NC1=N2)C1CCCCC1 | 185 to 186
OCC1Cc2ccccc2OC1CO (stereo not given) | 82 to 85
CCOC(=O)c1cn(C)c2ccc(F)cc2c1=O | 193 to 195
CC(=O)OC1CC2(C)C(=O)CCC2C2CC=C3CC(O)CCC3(C)C12 (stereo not given) | 155 to 156
O=C(O)Cc1cccc(OCCCNCC(c2ccccc2)c2ccccc2)c1 | 49.1
Cc1cc(-c2cccc(C(F)(F)F)c2)c2ncc(OCC(F)(F)F)nc2c1 | 114 to 117
Cc1ccc(C(OS(C)(=O)=O)(C(F)(F)F)C(F)(F)F)cc1C(OS(C)(=O)=O)(C(F)(F)F)C(F)(F)F | 107
Oc1ccc(O)c2c1CC=CC2 | 208 to 211
CCc1cn(C2CC(O)C(CNC(=O)C(CC)c3ccccc3)O2)c(=O)[nH]c1=O (stereo not given) | 235 to 236
O=C(c1cccs1)c1cnn2c(-c3ccc(F)c(N(C(=O)c4ccccc4Cl)C(=O)c4ccccc4Cl)c3)ccnc12 | 150 to 151
CC(C)CCS(=O)(=O)NC(=O)CCc1cc(OC(C)C)nn1Cc1ccc(Cl)cc1Cl | 143 to 145
CC(NC(=O)C(C)(C(C)C)C(C)C)c1ccco1 (stereo not given) | 57 to 60
CC1(C)COc2cc(Cl)c(F)cc2C(O)(c2ccccn2)C1 (stereo not given) | 100
CCOC1=CC(C)=C(C(=O)OC)C(C)(C)C1 | 67 to 69
Cc1cc([N+](=O)[O-])cc(C)c1NS(=O)(=O)CCSCCN | 159
